Source: ChEMBL document CHEMBL4261573, “Synthesis and growth-inhibitory activities of imidazo[5,1-d]-1,2,3,5-tetrazine-8-carboxamides related to the anti-tumour drug temozolomide, with appended silicon, benzyl and heteromethyl groups at the 3-position” (Medchemcomm, 2018)

What was measured:
[1] = Drug level in deuterated phosphate buffer/D2O at pD 7 treated with 3-Trimethylsilylmethylimidazotetrazine measured every 15 mins for 12 to 18 hrs by 1H NMR method
[2] = Drug level in deuterated phosphate buffer/D2O at pD 7 treated with 3-(2-Trimethylsilylethoxy)methylimidazotetrazine measured every 15 mins for 12 to 18 hrs by 1H NMR method
[3] = tested on: U373 MG; assay: Growth inhibition of vehicle-transfected human U373 cells after 7 days by MTT assay; format: functional, U-373MG ATCC; details: 168 h
[4] = tested on: SNB-19; assay: Growth inhibition of vehicle-transfected human SNB19 cells after 7 days by MTT assay; format: functional; details: SNB-19, 168 h
[5] = tested on: U373 MG; assay: Growth inhibition of MGMT-transfected human U373 cells expressing MGMT after 7 days by MTT assay; format: functional, U-373MG ATCC; details: 168 h
[6] = tested on: SNB-19; assay: Growth inhibition of MGMT-transfected human SNB19 cells expressing MGMT after 7 days by MTT assay; format: functional; details: SNB-19, 168 h

Compound | Drug metabolism [1] | Drug metabolism [2] | GI50 [3] [µM] | GI50 [4] [µM] | GI50 [5] [µM] | GI50 [6] [µM]
NC(=O)c1[nH]cnc1N | Metabolite_Detected | Metabolite_Detected | – | – | – | –
C[Si](C)(C)CCO | – | Metabolite_Detected | – | – | – | –
C[C@H](c1ccccc1)n1nnc2c(C(N)=O)ncn2c1=O | – | – | > 50 | 32.7 | > 50 | 49.7
COc1ccc(Cn2nnc3c(C(N)=O)ncn3c2=O)cc1OC | – | – | > 50 | > 50 | > 50 | > 50
NC(=O)c1nc[nH]c1N/N=N/Cc1ccoc1 | – | – | > 50 | > 50 | > 50 | > 50
NC(=O)c1ncn2c(=O)n(Cc3c[nH]nn3)nnc12 | – | – | > 50 | > 50 | > 50 | > 50
NC(=O)c1ncn2c(=O)n(Cc3ccco3)nnc12 | – | – | > 50 | > 50 | > 50 | > 50
NC(=O)c1nc[nH]c1N/N=N/Cc1ccco1 | – | – | > 50 | > 50 | > 50 | > 50
NC(=O)c1ncn2c(=O)n(Cc3ccsc3)nnc12 | – | – | > 50 | > 50 | > 50 | > 50
C[Si](C)(C)Cn1nnc2c(C(N)=O)ncn2c1=O | – | – | 45.6 | 28.4 | 250 | 302
NC(=O)c1ncn2c(=O)n(Cc3ccccc3)nnc12 | – | – | > 50 | > 50 | > 50 | > 50
NC(=O)c1nc[nH]c1N/N=N/Cc1ccccc1 | – | – | > 50 | > 50 | > 50 | > 50
COc1ccc(Cn2nnc3c(C(N)=O)ncn3c2=O)c(OC)c1 | – | – | > 50 | > 50 | > 50 | > 50
COc1ccc([C@@H](C)n2nnc3c(C(N)=O)ncn3c2=O)cc1 | – | – | > 50 | > 50 | > 50 | > 50
C=O.O | – | Metabolite_Detected | – | – | – | –
COc1cc(Cn2nnc3c(C(N)=O)ncn3c2=O)cc(OC)c1OC | – | – | > 50 | > 50 | > 50 | > 50
Cc1noc(Cn2nnc3c(C(N)=O)ncn3c2=O)n1 | – | – | > 50 | > 50 | > 50 | > 50

Compound | Drug metabolism [1] | Drug metabolism [2] | GI50 [3] [µM] | GI50 [4] [µM] | GI50 [5] [µM] | GI50 [6] [µM]
NC(=O)c1nc[nH]c1N/N=N/CCc1ccccc1 | – | – | > 50 | > 50 | > 50 | > 50
NC(=O)c1ncn2c(=O)n(C(c3ccccc3)c3ccccc3)nnc12 | – | – | > 50 | > 50 | > 50 | > 50
Cc1cc(Cn2nnc3c(C(N)=O)ncn3c2=O)on1 | – | – | > 50 | > 50 | > 50 | > 50
COc1ccccc1Cn1nnc2c(C(N)=O)ncn2c1=O | – | – | > 50 | > 50 | > 50 | > 50
C[C@@H](c1ccccc1)n1nnc2c(C(N)=O)ncn2c1=O | – | – | > 50 | 34.7 | > 50 | 45.3
NC(=O)c1nc[nH]c1N/N=N/Cc1cccs1 | – | – | > 50 | > 50 | > 50 | > 50
C[Si](C)(C)CCOCn1nnc2c(C(N)=O)ncn2c1=O | – | – | 25.3 | 29.9 | 24.2 | 27.5
NC(=O)c1ncn2c(=O)n(CCc3ccccc3)nnc12 | – | – | > 50 | > 50 | > 50 | > 50
COc1cccc(Cn2nnc3c(C(N)=O)ncn3c2=O)c1 | – | – | > 50 | > 50 | > 50 | > 50
CC[C@@H](c1ccccc1)n1nnc2c(C(N)=O)ncn2c1=O | – | – | > 50 | > 50 | > 50 | > 50
COc1ccc(Cn2nnc3c(C(N)=O)ncn3c2=O)cc1 | – | – | > 50 | > 50 | > 50 | > 50
NC(=O)c1nc[nH]c1N/N=N/Cc1ccsc1 | – | – | > 50 | > 50 | > 50 | > 50
NC(=O)c1ncn2c(=O)n(Cc3cccs3)nnc12 | – | – | > 50 | > 50 | > 50 | > 50
CC(c1ccc(Br)cc1)n1nnc2c(C(N)=O)ncn2c1=O (racemic) | – | – | > 50 | > 50 | > 50 | > 50
CO [METHYL ALCOHOL] | Metabolite_Detected | – | – | – | – | –
COP(=O)(O)O [PHOSPHORIC ACID MONOMETHYL ESTER] | Metabolite_Detected | – | – | – | – | –
Cn1nnc2c(C(N)=O)ncn2c1=O [TEMOZOLOMIDE] | – | – | 68 | 35.7 | 369 | 470
